From PubChem BioAssay (NCI) come the findings set out here.

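Each compound was tested at five concentrations against cells in 96-well plates for 48 hours. At the GI50, growth is halved. TGI denotes the concentration required for complete inhibition of growth.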

Test systems include MALME-3M melanoma; HCT-15 colon; HS 578T breast; DU-145 prostate; SK-MEL-5 melanoma; SNB-19 CNS; U251 CNS; NCI-H522 lung.
Test in all cases: NCI tumour cell line growth inhibition, 48 h

As for `Cc1cccc(Oc2ccc(Nc3ncnc4ccc(NC(=O)CN5CCN(C)CC5)cc34)cc2Cl)c1`, the GI50 with MALME-3M melanoma is 1.59 µM; in the experiment on HCT-15 colon it was 1.35 µM; in the experiment on HS 578T breast it was 1.77 µM; in the experiment on DU-145 prostate, 1.18 µM; with SK-MEL-5 melanoma, 1.64 µM; in the experiment on SNB-19 CNS it was 1.95 µM. Besides, the TGI stood at 3.16 µM in the experiment on MALME-3M melanoma; 2.76 µM in the experiment with HCT-15 colon; 4.28 µM in the experiment on HS 578T breast; 2.57 µM in the experiment on DU-145 prostate; 3.03 µM with SK-MEL-5 melanoma; 4.79 µM in the experiment on SNB-19 CNS.

In the case of `Nc1ccn(C2OC(COP(=O)(O)O)C(O)C2O)c(=O)n1` (stereo unspecified), the TGI with MALME-3M melanoma is > 100 µM; in the experiment with HCT-15 colon, > 100 µM; with HS 578T breast, > 100 µM; with DU-145 prostate it was > 25.2 µM; in the experiment with U251 CNS, > 100 µM; with SK-MEL-5 melanoma, > 100 µM. Besides, the TGI in the experiment on SNB-19 CNS and in the experiment with NCI-H522 lung was > 100 µM each time.

`CC1(C)CC2=NOS3=C2C(=NO3)C1c1ccccn1` (stereo unspecified): the TGI was > 100 µM in the experiment on MALME-3M melanoma; > 100 µM in the experiment with HCT-15 colon; > 100 µM in the experiment with HS 578T breast; > 100 µM with DU-145 prostate; > 100 µM in the experiment with U251 CNS; 34.8 µM in the experiment with SK-MEL-5 melanoma. Moreover, the TGI in the experiment on SNB-19 CNS is > 100 µM; in the experiment on NCI-H522 lung, 90.2 µM.

In the case of `C[C@]12CC[C@@H]3c4ccc(OCC(=O)O)cc4CC[C@H]3[C@@H]1CCC2=O`, the TGI in the experiment with MALME-3M melanoma, in the experiment on HCT-15 colon, in the experiment on HS 578T breast, in the experiment with DU-145 prostate, in the experiment with U251 CNS and with SK-MEL-5 melanoma was > 100 µM throughout. Further, the TGI in the experiment with SNB-19 CNS and in the experiment on NCI-H522 lung was > 100 µM each time.

In the case of `CC(=O)O[C@H]1C(=O)[C@@]2(C)[C@H]([C@H](OC(=O)c3ccccc3)[C@]3(O)C[C@H](OC(=O)[C@H](OC(=O)CCC(=O)OC4CCC(S/N=C(N)/N=C(\N)N(C)C)CC4)[C@@H](NC(=O)c4ccccc4)c4ccccc4)C(C)=C1C3(C)C)[C@]1(OC(C)=O)CO[C@@H]1C[C@@H]2O` (stereo partly specified), the GI50 with HCT-15 colon is 0.269 µM; with HS 578T breast it was 0.01 µM; with DU-145 prostate it was 0.0135 µM; in the experiment on U251 CNS, 0.00815 µM; with SK-MEL-5 melanoma it was 0.0176 µM; with SNB-19 CNS, 0.0205 µM. In addition, the GI50 in the experiment on NCI-H522 lung is 0.00553 µM. The TGI in the experiment with HCT-15 colon was > 50 µM; in the experiment on DU-145 prostate, > 50 µM; in the experiment on U251 CNS, > 50 µM; in the experiment on SK-MEL-5 melanoma it was 10.5 µM; in the experiment with SNB-19 CNS it was > 50 µM; in the experiment with NCI-H522 lung, 0.0373 µM.

`O=[N+]([O-])c1ccccc1/C=C/C=C1c2ccccc2-c2ccccc21`: the GI50 with MALME-3M melanoma, in the experiment on HCT-15 colon, with HS 578T breast, in the experiment with DU-145 prostate, in the experiment on U251 CNS and with SK-MEL-5 melanoma was > 100 µM throughout. Also, the GI50 in the experiment on SNB-19 CNS and in the experiment on NCI-H522 lung was > 100 µM throughout. Also, the TGI with MALME-3M melanoma, with HCT-15 colon, in the experiment on HS 578T breast, with DU-145 prostate, in the experiment on U251 CNS and with SK-MEL-5 melanoma was > 100 µM throughout. For the same compound, the TGI with SNB-19 CNS and in the experiment with NCI-H522 lung was > 100 µM throughout.

Turning to `C[C@@H](Oc1cc(-c2cnn(C3CC4(CCNCC4)C3)c2)cnc1N)c1c(F)ccc(Cl)c1Cl`, the GI50 is 1.29 µM with MALME-3M melanoma; 1.38 µM in the experiment with HCT-15 colon; 1.37 µM in the experiment on HS 578T breast; 2.27 µM in the experiment with DU-145 prostate; 1.6 µM with U251 CNS; 1.47 µM in the experiment with SK-MEL-5 melanoma. For the same compound, the figures for the GI50 with SNB-19 CNS and with NCI-H522 lung were 4.29 µM and 1.48 µM, respectively. Moreover, the TGI was determined as 3.02 µM with MALME-3M melanoma; 3.5 µM in the experiment with HCT-15 colon; 4.15 µM with HS 578T breast; 11.5 µM with DU-145 prostate; 3.92 µM with U251 CNS; 2.85 µM in the experiment on SK-MEL-5 melanoma. In addition, the results for the TGI with SNB-19 CNS and in the experiment with NCI-H522 lung were 18.1 µM and 3.12 µM, respectively.

Turning to `O=C(CSc1nc2sc3c(c2c(=O)n1-c1ccccc1)CCCCC3)N/N=C/c1ccc(F)cc1`, the GI50 is 1.67 µM in the experiment on MALME-3M melanoma; 3.77 µM in the experiment with HCT-15 colon; 1.01 µM with HS 578T breast; 1.24 µM in the experiment with DU-145 prostate; 1.93 µM with U251 CNS; 2.93 µM with SK-MEL-5 melanoma. In addition, the figures for the GI50 in the experiment on SNB-19 CNS and in the experiment with NCI-H522 lung were 3.45 µM and 6.77 µM, respectively. Besides, the TGI with MALME-3M melanoma was 5.86 µM; with HCT-15 colon, > 100 µM; in the experiment with HS 578T breast, 4.96 µM; in the experiment with DU-145 prostate it was 4.3 µM; in the experiment on U251 CNS, 5.31 µM; with SK-MEL-5 melanoma, 9.56 µM. For the same compound, the figures for the TGI with SNB-19 CNS and in the experiment with NCI-H522 lung were 13.2 µM and 33 µM, respectively.

As to `C[C@]12CC[C@H]3[C@@H](CC=C4C[C@@H](O)CC[C@@]43C)[C@@H]1C/C(=C\c1cccc(OCCCn3ccnc3)c1)[C@@H]2O`, the GI50 in the experiment on MALME-3M melanoma is 15.7 µM; in the experiment with HCT-15 colon, 10.2 µM; in the experiment with HS 578T breast it was 5.16 µM; in the experiment on DU-145 prostate, 14.2 µM; in the experiment with U251 CNS it was 11.8 µM; with SK-MEL-5 melanoma, 6.26 µM. Besides, the GI50 in the experiment on SNB-19 CNS is 17.1 µM; in the experiment on NCI-H522 lung it was 14.6 µM. In addition, the TGI with MALME-3M melanoma was found to be 35.9 µM; in the experiment with HCT-15 colon, 38.9 µM; with HS 578T breast it was 23.4 µM; in the experiment with DU-145 prostate, 28.3 µM; with U251 CNS it was 24.7 µM; with SK-MEL-5 melanoma, 20.4 µM. Besides, the TGI with SNB-19 CNS amounted to 37.6 µM; with NCI-H522 lung, 27.7 µM.

Turning to `CCN(CC)CCCN1C(=O)c2c(c(C)c3c(oc4cc(O)ccc43)c2C)C1=O`, the GI50 in the experiment with MALME-3M melanoma is 1.83 µM; with HCT-15 colon it was 1.77 µM; in the experiment with DU-145 prostate, 1.83 µM; with U251 CNS, 1.74 µM; in the experiment with SK-MEL-5 melanoma it was 1.73 µM; in the experiment on SNB-19 CNS it was 1.75 µM. In addition, the GI50 in the experiment with NCI-H522 lung was 1.84 µM. The TGI in the experiment on MALME-3M melanoma was 3.51 µM; in the experiment with HCT-15 colon, 3.39 µM; with DU-145 prostate it was 3.32 µM; with U251 CNS it was 3.2 µM; with SK-MEL-5 melanoma it was 3.14 µM; with SNB-19 CNS it was 3.35 µM. Moreover, the TGI in the experiment on NCI-H522 lung was 3.66 µM.

Regarding `O=C(Nc1ccc(N=Nc2ccccc2)cc1)Sc1ccccc1C(=O)O`, the TGI in the experiment with HCT-15 colon, in the experiment with U251 CNS, with SNB-19 CNS and with NCI-H522 lung was > 100 µM each time.
